The target in test [1] is T1, MasL ([Empedobacter] haloabium, UniProt A0A915Q9D3).
T1 construct: gene E7V67_18950; recombinant, purified from E. coli; residues 1-394 described; tetramer in solution; reactive Cys90, His350, Cys380; tag details in supplement
Nature of the test: CoA release, fluorescent probe; progress curves, covalent inhibitor model. The test is classed as biochemical. The text has this:
CoA release, fluorescent probe; progress curves, covalent inhibitor model on MasL

Test [2] addresses MasL (acetyl-CoA acetyltransferase of Massilia sp. YMA4), apo form (Massilia sp. YMA4). Nature of the test: not stated; oligomeric state of MasL in solution; method not given.
Test [3] shares this target. Nature of the test: crystal structure; X-ray crystal structures of MasL, apo and after incubation with collimonin C or D; a tetramer in the asymmetric unit (space groups P1, P2_(1), P1).
Test [4] has as its target MasL-collimonin C complex (MasL covalently modified by collimonin C at Cys90) (Massilia sp. YMA4). Described as above.
Test [5] deals with MasL-collimonin D complex (MasL modified by collimonin D) (Massilia sp. YMA4). Described as above.

T1 sequence (A0A915Q9D3 entry or part of it): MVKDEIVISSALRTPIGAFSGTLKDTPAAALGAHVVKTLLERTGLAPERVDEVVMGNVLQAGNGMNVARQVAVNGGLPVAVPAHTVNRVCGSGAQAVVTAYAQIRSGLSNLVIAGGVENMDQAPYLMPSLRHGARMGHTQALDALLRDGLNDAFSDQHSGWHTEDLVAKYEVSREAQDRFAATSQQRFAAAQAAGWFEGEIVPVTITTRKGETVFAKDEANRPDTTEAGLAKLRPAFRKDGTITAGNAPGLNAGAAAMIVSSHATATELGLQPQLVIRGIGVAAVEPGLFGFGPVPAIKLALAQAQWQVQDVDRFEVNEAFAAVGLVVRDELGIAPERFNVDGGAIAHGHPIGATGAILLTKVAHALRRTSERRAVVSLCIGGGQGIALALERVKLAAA

For the compound `C#CC#CC#C/C=C/C[C@@H](O)[C@@H](O)CCCCC(=O)O` [compound 1, collimonin C], in test [1] (covalent, irreversible S-alkylation of Cys90, competitive against acetyl-CoA, complex structure 1.66 Å), the KI (inactivation) was 297 µM.
`C#CC#CC#C/C=C/C[C@@H](O)[C@H](O)CCCCC(=O)O` [compound 2, collimonin D] came in with a KI (inactivation) in test [1] (covalent, irreversible S-alkylation of Cys90 (by MS), competitive against acetyl-CoA, complex structure 1.40 Å) of 42.8 µM.
In test [1] (covalent, adduct by mass spectrometry), `C#CC#CC#C/C=C/CCC(O)CCCCC(=O)O` (centres unmarked) [compound 3, massilin A] returned a KI (inactivation) of 132 µM.
For the compound `C#CC#CC#C/C=C/CCCCCCCC(=O)O` [compound 5, massilin C], in test [1] (covalent inhibitor model), the KI (inactivation) came to 228 µM.
Broadly, the stoichiometry N is the number of molecules, sites or subunits per partner or assembly. For “MasL (acetyl-CoA acetyltransferase of Massilia sp. YMA4), apo form (enzyme)”, the stoichiometry N in test [2] and in test [3] was 4 each time.
The compound “MasL-collimonin C complex (MasL covalently modified by collimonin C at Cys90) (enzyme)” registered a stoichiometry N in test [4] of 4.
Regarding “MasL-collimonin D complex (MasL modified by collimonin D) (enzyme)”, the stoichiometry N in test [5] stood at 4.

The values are drawn from paper PMC9098870, “Integrated omics approach to unveil antifungal bacterial polyynes as acetyl-CoA acetyltransferase inhibitors” (Communications Biology, 2022).
